A word on the Emax: it is the maximal effect, on the per cent scale that the assay sets. As usually defined, the EC50 is the concentration that produces a half-maximal response.

30 compounds from patent US10239887B2, “Positive allosteric modulators of the muscarinic acetylcholine receptor M4” (Vanderbilt University, priority 2016, dated 2019) can be followed below.

The assay deals with T1, human mAChR M4 (Homo sapiens, UniProt P08173).
T1 sequence (P08173 1-479): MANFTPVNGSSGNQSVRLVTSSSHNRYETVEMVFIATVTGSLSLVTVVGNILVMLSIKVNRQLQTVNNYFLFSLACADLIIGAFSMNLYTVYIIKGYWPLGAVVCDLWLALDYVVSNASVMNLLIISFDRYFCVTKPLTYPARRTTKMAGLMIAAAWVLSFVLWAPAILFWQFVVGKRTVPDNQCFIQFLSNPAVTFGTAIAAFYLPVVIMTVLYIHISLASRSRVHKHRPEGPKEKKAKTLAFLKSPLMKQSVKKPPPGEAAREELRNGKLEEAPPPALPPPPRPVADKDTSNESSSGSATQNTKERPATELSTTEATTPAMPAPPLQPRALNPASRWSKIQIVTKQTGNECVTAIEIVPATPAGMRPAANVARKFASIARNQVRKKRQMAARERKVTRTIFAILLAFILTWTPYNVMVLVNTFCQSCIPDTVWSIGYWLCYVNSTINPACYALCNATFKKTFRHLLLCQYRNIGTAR
The experiment in a line: mAChR M4 cell-based functional assay (calcium flux), human M4. Particulars: for Emax: % ACh maximum at 30 μM. For orientation: A change in cytosolic calcium serves as a functional read-out for many receptors and channels.

Where [1] appears, read: Human M4 EC50, CHO-K1 hM4-Gqi5 cells, calcium flux, increase in EC20 acetylcholine response.
Where [2] appears, read: Human M4 EC50 (nM), Table 10, calcium flux, PAM activity with EC20 acetylcholine.

Each structure is given as a SMILES string. Where a name gives a salt, the structure may show the parent alone. Read-outs that look alike come from different tables or passages of the source. Bounds are passed on as bounds.

With `Cc1nnc2oc3c(NCc4cccc(C(C)(C)O)c4)ncnc3c2c1C` [Compound 67, 2-[3-[[(3,4-dimethylpyrimido [4′,5′:4,5]furo[2,3-c]pyridazin-8-yl)amino]methyl]phenyl]propan-2-ol], for the setting “Human M4”, the maximal effect (Emax) was found to be 63.4%. For the compound `Cc1nnc2oc3c(NC4CC4)ncnc3c2c1C` [Compound 68, N-cyclopropyl-3,4-dimethyl-pyrimido [4′,5′:4,5]furo[2,3-c]pyridazin-8-amine], the Emax (Human M4) is 66.5%. For the same compound, under setting [1], the EC50 came to 1310 nM. `Cc1nnc2oc3c(NC4CCC4)ncnc3c2c1C` [Compound 69, N-cyclobutyl-3,4-dimethyl-pyrimido [4′,5′:4,5]furo[2,3-c]pyridazin-8-amine]: the maximal effect (Emax) (Human M4) stood at 54.8%. Turning to `Cc1nnc2oc3c(NC4CCCC4)ncnc3c2c1C` [Compound 70, N-cyclopentyl-3,4-dimethyl-pyrimido [4′,5′:4,5]furo[2,3-c]pyridazin-8-amine], the Emax (Human M4) is 45.9%. Besides, the EC50 under setting [1] was 818 nM. For the compound `Cc1nnc2oc3c(NC4CC5(COC5)C4)ncnc3c2c1C` [Compound 71, 3,4-dimethyl-N-(2-oxaspiro[3.3]heptan-6-yl)pyrimido[4′,5′:4,5] furo[2,3-c]pyridazin-8-amine], the Emax (Human M4) is 37.2%. Besides, under setting [1], the 50% effective concentration (EC50) was greater than 10000 nM. Taken in the same sequence, the figures for `Cc1nnc2oc3c(NC4CC(F)(F)C4)ncnc3c2c1C` [Compound 72, N-(3,3-difluorocyclobutyl)-3,4-dimethyl-pyrimido [4′,5′:4,5]furo[2,3-c]pyridazin-8-amine] were 57.9% and 1750 nM.

Turning to `Cc1nnc2oc3c(N4CC5(COC5)C4)ncnc3c2c1C` [Compound 73, 3,4-dimethyl-8-(2-oxa-6-azaspiro[3.3]heptan-6-yl)pyrimido[4′,5′:4,5]furo [2,3-c]pyridazine], the Emax (Human M4) came to 46.1%. Further, the EC50 under setting [1] was 4840 nM. Taken in the same sequence, the figures for `Cc1nnc2oc3c(NCc4ccc(C(C)(C)O)nc4)ncnc3c2c1C` [Compound 74, 2-[5-[[(3,4-dimethylpyrimido [4′,5′:4,5]furo[2,3-c]pyridazin-8-yl)amino]methyl]-2-pyridyl]propan-2-ol] were 59.5% and 9160 nM. Take `COc1ccc(CNc2ncnc3c2oc2nnc(C)c(C)c23)cc1F` [Compound 75, N-[(3-fluoro-4-methoxy-phenyl)methyl]-3,4-dimethyl-pyrimido[4′,5′:4,5]furo[2,3-c]pyridazin-8-amine]: the Emax (Human M4) was found to be 36.4%. Regarding `COc1ccc(C2CC2Nc2ncnc3c2sc2nnc(C)c(C)c23)cc1` (stereo not drawn) [Compound 77, N-(2-(4-methoxyphenyl)cyclopropyl)-3,4-dimethylpyrimido [4′,5′:4,5]thieno[2,3-c] pyridazin-8-amine], the concentration for a half-maximal effect (EC50) under setting [2] was 200 nM. Further, the Emax (Table 10) came out at 86%. Turning to `COc1ccc(CNc2ncnc3c2sc2nnc(C)c(C)c23)cc1F` [Compound 78, N-(3-fluoro-4-methoxybenzyl)-3,4-dimethylpyrimido [4′,5′:4,5]thieno[2,3-c] pyridazin-8-amine], the maximal response (Emax) (Table 10) amounted to 71.6%.

With `Cc1nnc2sc3c(NCc4ccc(-c5cccnc5F)cc4)ncnc3c2c1C` [Compound 79, N-(4-(2-fluoropyridin-3-yl)benzyl)-3,4-dimethylpyrimido [4′,5′:4,5]thieno[2,3-c] pyridazin-8-amine], under setting [2], the EC50 was found to be 773 nM. Moreover, the Emax (Table 10) was found to be 95.2%. For the compound `Cc1nnc2sc3c(N4CC(C)(O)C4)ncnc3c2c1C` [Compound 80, 1-(3,4-dimethylpyrimido [4′,5′:4,5]thieno[2,3-c]pyridazin-8-yl)-3-methyl-azetidin-3-ol], the Emax (Table 10) was 62.1%. Turning to `Cc1nnc2sc3c(NC4CCN(c5cccc(F)c5F)C4)ncnc3c2c1C` (stereo not drawn) [Compound 81, N-[1-(2,3-difluorophenyl)pyrrolidin-3-yl]-3,4-dimethyl-pyrimido [4′,5′:4,5]thieno[2,3-c] pyridazin-8-amine], under setting [2], the EC50 is 3120 nM. Besides, the Emax (Table 10) is 62.6%. Regarding `Cc1nnc2sc3c(NC4CN(c5ncc(C6CC6)cc5Cl)C4)ncnc3c2c1C` [Compound 82, N-[1-(3-chloro-5-cyclopropyl-2-pyridyl)azetidin-3-yl]-3,4-dimethyl-pyrimido [4′,5′:4,5]thieno[2,3-c] pyridazin-8-amine], for the setting “Human M4 EC50 (nM), Table 10, unit μM (bounds)”, the EC50 was greater than 10000 nM. Further, the maximal effect (Emax) (Table 10) stood at 50.1%. With `Cc1nc(C2CC2)ccc1N1CC(Nc2ncnc3c2sc2nnc(C)c(C)c23)C1` [Compound 83, N-[1-(6-cyclopropyl-2-methyl-3-pyridyl)azetidin-3-yl]-3,4-dimethyl-pyrimido [4′,5′:4,5]thieno[2,3-c] pyridazin-8-amine], the EC50 under setting [2] is 288 nM. For the same compound, the Emax (Table 10) stood at 59.7%. In the case of `Cc1nnc2sc3c(NC4CN(c5ncc(F)cn5)C4)ncnc3c2c1C` [Compound 84, N-[1-(5-fluoropyrimidin-2-yl)azetidin-3-yl]-3,4-dimethyl-pyrimido [4′,5′:4,5]thieno[2,3-c] pyridazin-8-amine], the EC50 was 27.6 nM. For the same compound, the maximal response (Emax) (Table 10) stood at 64.9%. With `Cc1nnc2sc3c(NC4CN(c5cc(Cl)ncc5Cl)C4)ncnc3c2c1C` [Compound 85, N-[1-(2,5-dichloro-4-pyridyl)azetidin-3-yl]-3,4-dimethyl-pyrimido [4′,5′:4,5]thieno[2,3-c] pyridazin-8-amine], the maximal response (Emax) (Table 10) was found to be 74.3%. For `Cc1nnc2sc3c(NC4CN(c5cnc(C6CC6)cn5)C4)ncnc3c2c1C` [Compound 86, N-[1-(5-cyclopropylpyrazin-2-yl)azetidin-3-yl]-3,4-dimethyl-pyrimido [4′,5′:4,5]thieno[2,3-c] pyridazin-8-amine], the EC50 under setting [2] turned out to be 60.4 nM. In addition, where the note is “Table 10”, the Emax was determined as 69%. As for `Cc1nnc2sc3c(NC4CN(C(=O)OC(C)(C)C)C4)ncnc3c2c1C` [Compound 87, tert-butyl 3-[(3,4-dimethylpyrimido [4′,5′:4,5]thieno[2,3-c]pyridazin-8-yl)amino] azetidine-1-carboxylate], the EC50 under setting [2] was 139 nM. The maximum response (Emax) (Table 10) stood at 70.5%. Taken in the same sequence, the figures for `Cc1nnc2sc3c(NC4CNC4)ncnc3c2c1C` [Compound 88, N-(azetidin-3-yl)-3,4-dimethyl-pyrimido [4′,5′:4,5]thieno[2,3-c] pyridazin-8-amine dihydrochloride] were 1190 nM and 73.7%. For `Cc1nnc2sc3c(NC4CN(c5ncc(OC(C)C)cn5)C4)ncnc3c2c1C` [Compound 89, N-[1-(5-isopropoxypyrimidin-2-yl)azetidin-3-yl]-3,4-dimethyl-pyrimido [4′,5′:4,5]thieno[2,3-c] pyridazin-8-amine], in that order: 75.2 nM and 57.8%. For `Cc1nnc2sc3c(NCc4ccc(OC(F)F)nc4)ncnc3c2c1C` [Compound 90, N-[[6-(difluoromethoxy)-3-pyridyl]methyl]-3,4-dimethyl-pyrimido [4′,5′:4,5]thieno[2,3-c] pyridazin-8-amine], in that order: 277 nM and 76.7%.

Consider `Cc1nnc2sc3c(NCc4ccc(OCC5CC5)c(F)c4)ncnc3c2c1C` [Compound 91, N-[[4-(cyclopropylmethoxy)-3-fluoro-phenyl]methyl]-3,4-dimethyl-pyrimido [4′,5′:4,5]thieno[2,3-c] pyridazin-8-amine], for which, under setting [2], the 50% effective concentration (EC50) worked out at 3130 nM. In addition, the Emax (Table 10) amounted to 61.8%. For `Cc1nnc2sc3c(NCc4ccc(S(F)(F)(F)(F)F)cc4)ncnc3c2c1C` [Compound 92, 3,4-dimethyl-N-[[4-(pentafluoro-λ6-sulfanyl)phenyl]methyl]pyrimido [4′,5′:4,5]thieno[2,3-c] pyridazin-8-amine], in that order: 5270 nM and 67.3%.

On to `Cc1nnc2sc3c(NCc4ccc(S(C)(=O)=O)cc4)ncnc3c2c1C` [Compound 93, 3,4-dimethyl-N-[(4-methylsulfonylphenyl)methyl] pyrimido[4′,5′:4,5]thieno [2,3-c]pyridazin-8-amine], for which the 50% effective concentration (EC50) under setting [2] turned out to be 192 nM. For the same compound, the maximum response (Emax) (Table 10) was found to be 61.3%.

Consider `COc1ccc(CNc2ncnc3c2sc2nnc(C)c(C)c23)cc1OC` [Compound 94, N-[(3,4-dimethoxyphenyl)methyl]-3,4-dimethyl-pyrimido[4′,5′:4,5]thieno [2,3-c]pyridazin-8-amine], for which, under setting [2], the concentration giving a half-maximal response (EC50) worked out at 639 nM. Also, where the note is “Table 10”, the Emax was determined as 79.7%.

As for `Cc1nnc2sc3c(N4CC(N)C4)ncnc3c2c1C` [Compound 95, 1-(3,4-dimethylpyrimido [4′,5′:4,5]thieno[2,3-c]pyridazin-8-yl) azetidin-3-amine], the EC50 under setting [2] was 395 nM. Besides, for the setting “Table 10”, the maximal effect (Emax) is 61.4%. Taken in the same sequence, the figures for `CC(=O)NC1CN(c2ncnc3c2sc2nnc(C)c(C)c23)C1` [Compound 96, N-[1-(3,4-dimethylpyrimido [4′,5′:4,5]thieno[2,3-c]pyridazin-8-yl)azetidin-3-yl]acetamide] were 830 nM and 60.3%.

As for `Cc1nnc2sc3c(N4CC(NC(=O)c5ccncc5)C4)ncnc3c2c1C` [Compound 97, N-[1-(3,4-dimethylpyrimido [4′,5′:4,5]thieno[2,3-c]pyridazin-8-yl)azetidin-3-yl]pyridine-4-carboxamide hydrochloride], the EC50 under setting [2] was determined as 1130 nM. Besides, the Emax (Table 10) came out at 51.7%.
